The text below walks through data of patent publication US20190330224A1, “ACC INHIBITORS AND USES THEREOF” (Gilead Apollo, LLC, priority 2015, published 2019).

Values after ≈ are worked out from the molar mass of the structure shown.

Assay [1] relates to Blumeria graminis f sp. hordei. Put plainly: Foliar protection test, barley powdery mildew control. The class given is in vivo, Blumeria graminis f sp. hordei on Hordeum vulgare cv. Perry. Particulars: 168 h, compound concentration 50 ppm, foliar spray, evaluated 7 days after inoculation, read-out: Barley Powdery Mildew Control at 50 ppm. How it is done:
Compounds of the present invention were evaluated in a foliar protection test to determine the ability to control barley powdery mildew. Plants (Hordeum vulgare cv. Perry) were grown for 6 days in 2-inch square pots containing Metromix 200 medium amended with fertilizer. For propagation, plants were maintained in a growth chamber at conditions of 20 to 21° C., 16 hour light cycle, 400 uM of light, 70% humidity, and with sub-irrigation as needed. After inoculation with the pathogen of Blumeria graminis f sp. hordei, plants were kept at conditions of 20 to 22° C., 70% relative humidity, and 200 uM of light to facilitate infection and disease development. At 6 days after planting (1st true leaf fully expanded), the test compounds were dissolved in a solution of 5% acetone and 0.005% Tween 80 surfactant. An atomizer was used for applying the solution onto both sides of the leaves until thoroughly wetted. The amount of the compound applied to the leaves was typically 200, 100, 50, 10, or 2 ppm, but it may vary. At 24 hours after treatment, the plants were moved to a cooler chamber and inoculated by shaking well-colonized, untreated stock plants above the treated plants. This allowed producing a settling cloud of spores and resulting in uniform infection. Efficacy was evaluated in 7 days later by examining leaves for colonization and growth of mildew. Table 5 lists the results of barley powdery mildew control at a compound concentration of 50 ppm or 10 ppm. Compounds having an activity designated as “AA” provided a compound having >85% control of barley powdery mildew; compounds having an activity designated as “A” provided a compound having from 70% to 84% control of barley powdery mildew; compounds having an activity designated as “B” provided a compound having from 50 to 69% control of barley powdery mildew; compounds having an activity designated as “C” provided a compound having from 25 to 49% control of barley powdery mildew; and compounds having an activity designated as “D” provided a compound having <25% control of barley powdery mildew.

Assay [2] deals with Fusarium moniliforme (Fm). Put plainly: Growth inhibition assay of fungal pathogens, Fm. The class given is cell-based. Particulars: Fusarium verticillioides; 48 hours; read-out: Concentration at 90% Inhibition, Fm. In a few lines:
(§1)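 Spores in 17% V8 liquid medium were exposed to compound at final 50, 10 and 2 ppm or 2, 0.4 and 0.08 ppm with 2% DMSO. After 48 h, OD600 (blank-subtracted) and visual ratings were compared with the 2% DMSO control to give percent growth inhibition.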

The next assay deals with Botrtyis cinerea (Bc). Put plainly: Growth inhibition assay of fungal pathogens, Bc. The class given is cell-based. Conditions: 48 hours; read-out: Concentration at 90% Inhibition, Bc. In a few lines: as §1
The target in another assay is Fungal ACC2 (UniProt Q00955). Conditions: read-out: Fungal ACC2 (IC50, in vitro ACC2 inhibition).
Fungal ACC2, sequence (Q00955 whole entry): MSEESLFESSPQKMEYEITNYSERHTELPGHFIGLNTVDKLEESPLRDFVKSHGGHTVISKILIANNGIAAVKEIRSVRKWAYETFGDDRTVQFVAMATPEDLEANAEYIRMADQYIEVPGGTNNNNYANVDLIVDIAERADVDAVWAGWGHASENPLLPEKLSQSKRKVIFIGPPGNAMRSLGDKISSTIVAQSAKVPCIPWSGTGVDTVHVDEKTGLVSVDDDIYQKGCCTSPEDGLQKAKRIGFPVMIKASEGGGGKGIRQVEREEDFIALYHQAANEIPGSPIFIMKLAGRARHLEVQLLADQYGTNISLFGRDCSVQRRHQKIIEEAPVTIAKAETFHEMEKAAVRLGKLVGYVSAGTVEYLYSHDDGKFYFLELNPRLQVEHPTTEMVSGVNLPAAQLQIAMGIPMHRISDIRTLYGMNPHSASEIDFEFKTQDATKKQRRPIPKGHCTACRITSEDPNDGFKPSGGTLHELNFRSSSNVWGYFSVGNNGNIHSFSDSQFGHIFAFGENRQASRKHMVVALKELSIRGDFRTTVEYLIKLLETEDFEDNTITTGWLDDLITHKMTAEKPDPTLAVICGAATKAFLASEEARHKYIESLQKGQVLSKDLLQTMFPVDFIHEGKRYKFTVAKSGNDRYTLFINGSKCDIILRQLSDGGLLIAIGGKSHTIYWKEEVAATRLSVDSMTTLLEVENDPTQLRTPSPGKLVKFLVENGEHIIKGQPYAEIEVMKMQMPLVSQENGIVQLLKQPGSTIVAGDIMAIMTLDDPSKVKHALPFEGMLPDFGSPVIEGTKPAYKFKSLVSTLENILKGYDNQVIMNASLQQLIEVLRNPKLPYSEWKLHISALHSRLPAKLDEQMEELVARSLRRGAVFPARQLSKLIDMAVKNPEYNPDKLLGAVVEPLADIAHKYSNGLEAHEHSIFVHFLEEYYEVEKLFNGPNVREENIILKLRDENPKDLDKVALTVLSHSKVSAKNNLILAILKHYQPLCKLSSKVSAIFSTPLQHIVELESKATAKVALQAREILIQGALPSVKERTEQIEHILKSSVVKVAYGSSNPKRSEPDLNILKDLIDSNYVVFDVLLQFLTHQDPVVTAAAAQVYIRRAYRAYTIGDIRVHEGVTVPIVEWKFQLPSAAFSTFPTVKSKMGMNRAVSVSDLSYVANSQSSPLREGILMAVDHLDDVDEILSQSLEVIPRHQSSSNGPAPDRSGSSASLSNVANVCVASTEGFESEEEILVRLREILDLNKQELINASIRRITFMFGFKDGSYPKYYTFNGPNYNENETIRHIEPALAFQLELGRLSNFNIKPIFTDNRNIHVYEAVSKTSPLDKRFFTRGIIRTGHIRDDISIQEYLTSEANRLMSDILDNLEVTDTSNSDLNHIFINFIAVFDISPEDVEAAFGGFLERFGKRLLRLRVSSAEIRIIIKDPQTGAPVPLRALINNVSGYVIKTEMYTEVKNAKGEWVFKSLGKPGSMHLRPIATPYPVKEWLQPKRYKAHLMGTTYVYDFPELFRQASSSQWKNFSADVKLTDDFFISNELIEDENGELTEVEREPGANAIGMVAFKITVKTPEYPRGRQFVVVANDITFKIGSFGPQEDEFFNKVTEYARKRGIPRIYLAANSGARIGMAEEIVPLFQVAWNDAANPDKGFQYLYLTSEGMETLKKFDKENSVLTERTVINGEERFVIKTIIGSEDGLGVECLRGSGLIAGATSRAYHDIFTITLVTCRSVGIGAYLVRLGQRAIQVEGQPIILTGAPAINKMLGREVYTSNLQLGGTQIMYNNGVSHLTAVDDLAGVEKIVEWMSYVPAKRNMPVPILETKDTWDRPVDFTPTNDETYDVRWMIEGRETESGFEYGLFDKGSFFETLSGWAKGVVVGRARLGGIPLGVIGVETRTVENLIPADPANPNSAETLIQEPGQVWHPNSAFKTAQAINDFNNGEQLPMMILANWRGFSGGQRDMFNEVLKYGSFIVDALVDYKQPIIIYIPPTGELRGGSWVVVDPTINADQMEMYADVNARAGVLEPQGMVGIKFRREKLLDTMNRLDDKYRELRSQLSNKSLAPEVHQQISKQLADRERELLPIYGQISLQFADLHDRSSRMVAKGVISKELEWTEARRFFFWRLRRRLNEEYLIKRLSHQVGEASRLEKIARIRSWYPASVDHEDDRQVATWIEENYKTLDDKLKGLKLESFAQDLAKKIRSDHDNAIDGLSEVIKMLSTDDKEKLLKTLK
For the next assay, the target named is Human ACC2 (Homo sapiens, UniProt O00763). In words: In vitro ACC2 inhibition assay (ADP-Glo), human ACC2. The class given is biochemical. Particulars: 5 nM ACC2, 20 μM ATP, 20 μM acetyl-CoA.
Human ACC2, sequence (O00763 whole entry): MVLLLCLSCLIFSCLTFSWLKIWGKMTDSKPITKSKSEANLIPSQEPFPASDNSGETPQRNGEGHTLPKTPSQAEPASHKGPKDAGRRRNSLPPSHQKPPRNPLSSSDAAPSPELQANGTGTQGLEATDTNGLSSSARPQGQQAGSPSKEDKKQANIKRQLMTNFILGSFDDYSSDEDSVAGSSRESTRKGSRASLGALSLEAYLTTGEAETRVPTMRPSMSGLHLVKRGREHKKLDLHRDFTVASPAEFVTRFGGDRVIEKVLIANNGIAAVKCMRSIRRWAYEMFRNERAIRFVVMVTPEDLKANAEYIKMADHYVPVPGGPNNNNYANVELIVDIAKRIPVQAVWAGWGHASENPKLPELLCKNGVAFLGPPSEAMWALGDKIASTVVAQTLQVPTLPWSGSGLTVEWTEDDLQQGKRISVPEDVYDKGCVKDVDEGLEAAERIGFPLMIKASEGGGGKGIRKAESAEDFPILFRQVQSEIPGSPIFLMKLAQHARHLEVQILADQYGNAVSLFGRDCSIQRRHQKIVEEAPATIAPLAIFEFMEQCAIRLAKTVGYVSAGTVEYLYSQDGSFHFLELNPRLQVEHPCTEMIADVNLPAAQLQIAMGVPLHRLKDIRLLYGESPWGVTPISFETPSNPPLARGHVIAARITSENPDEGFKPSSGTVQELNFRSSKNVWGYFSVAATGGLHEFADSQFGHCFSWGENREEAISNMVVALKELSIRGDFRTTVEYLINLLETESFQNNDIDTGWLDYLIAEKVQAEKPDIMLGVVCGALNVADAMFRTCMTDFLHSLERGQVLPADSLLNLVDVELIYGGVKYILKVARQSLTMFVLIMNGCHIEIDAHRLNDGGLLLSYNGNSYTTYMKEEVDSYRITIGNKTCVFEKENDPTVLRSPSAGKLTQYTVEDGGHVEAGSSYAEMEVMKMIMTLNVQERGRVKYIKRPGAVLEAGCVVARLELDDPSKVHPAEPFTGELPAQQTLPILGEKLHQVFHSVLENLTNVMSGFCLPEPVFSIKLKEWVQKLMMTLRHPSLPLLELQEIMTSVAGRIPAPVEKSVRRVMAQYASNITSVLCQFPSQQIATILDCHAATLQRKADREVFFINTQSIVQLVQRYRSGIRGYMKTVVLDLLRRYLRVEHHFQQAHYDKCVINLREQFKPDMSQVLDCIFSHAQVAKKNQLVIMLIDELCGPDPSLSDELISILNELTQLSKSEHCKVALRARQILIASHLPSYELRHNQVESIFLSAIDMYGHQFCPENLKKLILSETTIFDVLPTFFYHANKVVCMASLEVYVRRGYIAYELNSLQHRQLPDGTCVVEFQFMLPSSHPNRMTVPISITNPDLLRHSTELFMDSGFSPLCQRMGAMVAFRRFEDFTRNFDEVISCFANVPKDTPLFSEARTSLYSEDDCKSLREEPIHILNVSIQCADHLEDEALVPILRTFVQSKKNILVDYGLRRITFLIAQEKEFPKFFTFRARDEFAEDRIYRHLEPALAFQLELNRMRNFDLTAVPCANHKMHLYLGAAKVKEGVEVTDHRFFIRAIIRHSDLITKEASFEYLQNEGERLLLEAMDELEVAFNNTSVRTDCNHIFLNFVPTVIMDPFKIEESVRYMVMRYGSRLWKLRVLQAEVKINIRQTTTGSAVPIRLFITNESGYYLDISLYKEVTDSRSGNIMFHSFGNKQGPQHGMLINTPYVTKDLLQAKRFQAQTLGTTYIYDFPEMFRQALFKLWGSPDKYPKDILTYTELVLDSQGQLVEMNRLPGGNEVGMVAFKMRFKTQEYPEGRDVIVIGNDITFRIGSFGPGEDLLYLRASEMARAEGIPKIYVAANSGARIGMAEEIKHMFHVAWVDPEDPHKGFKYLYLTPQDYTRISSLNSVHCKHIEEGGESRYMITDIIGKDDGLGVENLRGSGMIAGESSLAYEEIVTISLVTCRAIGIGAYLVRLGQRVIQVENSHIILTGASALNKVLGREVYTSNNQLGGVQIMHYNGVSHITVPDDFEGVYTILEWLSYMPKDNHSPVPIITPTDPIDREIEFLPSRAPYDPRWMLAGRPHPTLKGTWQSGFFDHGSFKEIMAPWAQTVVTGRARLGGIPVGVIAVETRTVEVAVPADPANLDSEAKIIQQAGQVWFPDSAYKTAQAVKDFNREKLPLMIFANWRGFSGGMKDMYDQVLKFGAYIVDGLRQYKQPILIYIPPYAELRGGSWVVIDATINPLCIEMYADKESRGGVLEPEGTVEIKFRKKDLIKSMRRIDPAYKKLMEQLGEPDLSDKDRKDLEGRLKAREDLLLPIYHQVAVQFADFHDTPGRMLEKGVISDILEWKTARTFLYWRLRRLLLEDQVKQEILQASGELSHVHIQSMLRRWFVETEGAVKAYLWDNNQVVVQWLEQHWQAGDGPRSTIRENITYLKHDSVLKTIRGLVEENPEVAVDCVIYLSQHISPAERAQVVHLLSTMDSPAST
The test system of assay [3] is Phytophthora capsici (Pc). Put plainly: Growth inhibition assay of fungal pathogens, Pc. The format is cell-based. Conditions: 48 hours, read-out: Concentration at 90% Inhibition, Pc. In a few lines:
as §1

For assay [4] the following is noted: compound concentration 10 ppm, foliar spray, evaluated 7 days after inoculation.
For assay [5], the system named is Fusarium virguliforme (Fv). Put plainly: Growth inhibition assay of fungal pathogens, Fv. The class given is cell-based. Conditions: 48 hours, read-out: Concentration at 90% Inhibition, Fv. An outline of the steps: as §1
In the next assay the test system is Rhizoctonia solani (Rs). In words: Growth inhibition assay of fungal pathogens, Rs. The class given is cell-based. Conditions: 48 hours, read-out: Concentration at 90% Inhibition, Rs.
For assay [6], the system named is Collectotrichum graminicola (Cg). In words: Growth inhibition assay of fungal pathogens, Cg. The class given is cell-based. Conditions: 48 hours; read-out: Concentration at 90% Inhibition, Cg. An outline of the steps: as §1
A further assay deals with Septoria tritici (St). Put plainly: Growth inhibition assay of fungal pathogens, St. The format is cell-based. Particulars: Zymoseptoria tritici; 48 hours; read-out: Concentration at 90% Inhibition, St. An outline of the steps:
as §1

The next assay has as its system Diplodia maydis (Dm). Put plainly: Growth inhibition assay of fungal pathogens, Dm. The format is cell-based. Particulars: Stenocarpella maydis; 48 hours; read-out: Concentration at 90% Inhibition, Dm. An outline of the steps: as §1

Consider `COc1ccc(F)cc1[C@H](Cn1c(=O)n([C@@H]2CCNC2=O)c(=O)c2c(C)c(-n3nccn3)sc21)OCCO` [Compound I-81, 1-((R)-2-(5-fluoro-2-methoxyphenyl)-2-(2-hydroxy-ethoxy)ethyl)-5-methyl-3-((R)-2-oxopyrrolidin-3-yl)-6-(2H-1,2,3-triazol-2-yl)thieno[2,3-d]pyrimidine-2,4(1H,3H)-dione], for which, in assay [1], the pest or weed control at 50 ppm was in the range of 25 to 49%. In addition, the IC90 in assay [2] worked out at 2 µg/mL (≈ 3.67 µM); with Botrtyis cinerea (Bc), 2 µg/mL (≈ 3.67 µM); in assay [3], 10 µg/mL (≈ 18.4 µM); in [5], 2 µg/mL (≈ 3.67 µM); in the assay on Rhizoctonia solani (Rs) it was 10 µg/mL (≈ 18.4 µM); in assay [6], 10 µg/mL (≈ 18.4 µM). Also, the results for the IC90 in the assay on Septoria tritici (St) and with Diplodia maydis (Dm) were greater than 50 µg/mL and 10 µg/mL (≈ 18.4 µM), respectively. Further, the IC50 at Fungal ACC2 lay within 0.7 to 2 nM; against Human ACC2, 2 to 10 nM. For the same compound, the “Barley Powdery Mildew Control at 10 ppm” value in [4] is reported as “D (provided a compound having <25% control of barley powdery mildew)”.

For `COc1ccc(F)cc1[C@H](Cn1c(=O)n([C@@H]2CCNC2=O)c(=O)c2c(C)c(-n3nccn3)sc21)OCCC#N` [Compound I-107, 3-((R)-1-(5-fluoro-2-methoxyphenyl)-2-(5-methyl-2,4-dioxo-3-((R)-2-oxopyrrolidin-3-yl)-6-(2H-1,2,3-triazol-2-yl)-3,4-dihydrothieno[2,3-d]pyrimidin-1(2H)-yl)ethoxy)propanenitrile], in assay [1], the pest or weed control at 50 ppm fell in the range of 50 to 69%. In addition, the IC90 in assay [2] is 2 µg/mL (≈ 3.61 µM); in the assay on Botrtyis cinerea (Bc) it was 2 µg/mL (≈ 3.61 µM); in [3] it was greater than 50 µg/mL; in [5], 2 µg/mL (≈ 3.61 µM); with Rhizoctonia solani (Rs), 2 µg/mL (≈ 3.61 µM); in assay [6], 10 µg/mL (≈ 18.1 µM). Moreover, the IC90 with Septoria tritici (St) is greater than 50 µg/mL; with Diplodia maydis (Dm), 10 µg/mL (≈ 18.1 µM). The IC50 at Fungal ACC2 lay in the range of 0.7 to 2 nM; against Human ACC2, 2 to 10 nM. Further, in assay [4], the “Barley Powdery Mildew Control at 10 ppm” value was “C (provided a compound having from 25 to 49% control of barley powdery mildew)”.

In the case of `COc1ccc(F)cc1[C@H](Cn1c(=O)n([C@@H]2CCCNC2=O)c(=O)c2c(C)c(-n3nccn3)sc21)OCCC(=O)O` [Compound I-178, 3-((R)-1-(5-fluoro-2-methoxyphenyl)-2-(5-methyl-2,4-dioxo-3-((R)-2-oxopiperidin-3-yl)-6-(2H-1,2,3-triazol-2-yl)-3,4-dihydrothieno[2,3-d]pyrimidin-1(2H)-yl)ethoxy)propanoic acid], in assay [1], the pest or weed control at 50 ppm lay within 25 to 49%. In addition, the IC90 in assay [2] was 10 µg/mL (≈ 17 µM); in the assay with Botrtyis cinerea (Bc), greater than 50 µg/mL; in [3], greater than 50 µg/mL; in assay [5], greater than 50 µg/mL; in the assay with Rhizoctonia solani (Rs) it was 2 µg/mL (≈ 3.41 µM); in assay [6], 10 µg/mL (≈ 17 µM). The IC90 with Septoria tritici (St) and in the assay on Diplodia maydis (Dm) was greater than 50 µg/mL each time. Also, the values for the IC50 on Fungal ACC2 and against Human ACC2 were 0.7 to 2 nM and 10 to 100 nM, respectively. Moreover, the “Barley Powdery Mildew Control at 10 ppm” value in assay [4] was “D (provided a compound having <25% control of barley powdery mildew)”.
